Melting point data for two molecules are collected here from patent publication US20070027178A1, “Substituted tetrahydro-1H-pyrido[4,3-b]indoles as serotonin receptors agonists and antagonists” (Bristol-Myers Squibb Company, priority 2005, published 2007).

`Cc1cc(C(F)(F)F)c2[nH]c3c(c2c1)CNCC3.Cl` yielded a melting point of 338 to 342 °C.
The figure for `COc1cc(C(F)(F)F)c2[nH]c3c(c2c1)CNCC3` [Example 23, 8-Methoxy-6-(trifluoromethyl)-2,3,4,5-tetrahydro-1H-pyrido [4,3-b]indole] is 140 to 144 °C.
